Measured values: patent US10294237B2, “Bicyclic heterocyclic amide derivative” (Sumitomo Dainippon Pharma Co., Ltd., priority 2015, dated 2019)
Structures can show the parent of a compound that is named as a salt.

Tests used:
HCT-116 cells [1] = test: Test for inhibiting sphere-forming ability of cancer cells; format: cell-based; settings: HCT-116 spheres, non-adherent, serum-free, 4 days, CellTiter-Glo, read-out: IC50 (Sphere IC50 value; concentration for 50% inhibition of cell proliferation)
Procedure: (§1) The reliable methods established for measuring the self-renewal ability of cells which is one of the CSC's properties include a method for measuring the sphere-forming ability of cancer cells in non-adherent condition in the absence of serum (Cancer Res 65, 5506-5511 (2005)). HCT-116 cells were available from the American Type Culture Collection (ATCC). HCT-116 cells were cultured at 37° C. and 5% CO2 using the McCoy's 5a medium containing 10% fetal bovine serum (FBS) and 1% penicillin/streptomycin. HCT-116 cells were seeded in a 384 Well Black Clear Bottom Ultra-Low Attachment Microplate (Corning Cat. No. 3827) in an amount of 350-800 cells/well using the DMEM/F12 medium containing 2% B27 supplement (GIBCO), 20 ng/mL epidermal growth factor (EGF) (peprotech), 10 ng/mL basic fibroblast growth factor (bFGF) (peprotech), 5 μg/mL insulin (Sigma), and 1% penicillin/streptomycin. The test compounds were added into each well to adjust the final concentration of DMSO to 0.1%, and the cells were cultured for 4 days. The number of viable cells in each well was then measured with CellTiter-Glo® Luminescent Cell Viability Assay (Promega) to calculate the concentration of each test compound for 50% inhibition of cell proliferation (Sphere IC50 value; μmol/L).
The experiment of Test Example 1 was performed for the compounds of each Example. The concentrations of each test compound for 50% inhibition of cell profeliration (Sphere IC50 value; μmol/L) are shown in the following Table.

HCT-116 cells [2] = test: Test for inhibiting sphere-forming ability of cancer cells (in the presence of BSA); format: cell-based; settings: HCT-116 spheres, non-adherent, 5% BSA, 4 days, CellTiter-Glo, read-out: IC50 (Sphere IC50 value; concentration for 50% inhibition of cell proliferation)
Procedure: as §1, with “HCT-116” for “The reliable methods established for measuring the self-renewal ability of cells which is one of the CSC's properties include a method for measuring the sphere-forming ability of cancer cells in non-adherent condition in the absence of serum (Cancer Res 65, 5506-5511 (2005)). HCT-116”, “(Sigma), 5% bovine serum albumin (BSA),” for “(Sigma),”
The experiment of Test Example 2 was performed for the compounds of each Example. The concentrations of each test compound for 50% inhibition of cell profeliration (Sphere IC50 value; μmol/L) are shown in the following Table.

| IC50 (HCT-116 cells [1]; Homo sapiens, 96 h) [nM] | IC50 (HCT-116 cells [2]; Homo sapiens, HCT-116, 96 h) [nM] | IC50 (HCT-116 cells [1]) [nM] | IC50 (HCT-116 cells [2]) [nM] | SMILES |
| --- | --- | --- | --- | --- |
| 80 | 170 | – | – | O=C(Nc1cc2c(cc1F)CNCC2)c1cn(Cc2cc(F)c(F)c(F)c2)cn1 [Example 1, N-(7-fluoro-1,2,3,4-tetrahydroisoquinolin-6-yl)-1-(3,4,5-trifluorobenzyl)-1H-imidazole-4-carboxamide] |
| 660 | 490 | – | – | O=C(Nc1cc2c(cc1F)CNCC2)c1cn(Cc2ccc(F)c(F)c2)cn1 [Example 2] |
| 660 | 560 | – | – | O=C(Nc1ccc2c(c1)CCNC2)c1cn(Cc2cc(F)c(F)c(F)c2)cn1 [Example 4, N-(1,2,3,4-tetrahydroisoquinolin-6-yl)-1-(3,4,5-trifluorobenzyl)-1H-imidazole-4-carboxamide] |
| 390 | 610 | – | – | O=C(Nc1cn(Cc2cc(F)c(F)c(F)c2)cn1)c1cc2c(cc1F)CNCC2 [Example 7] |
| 90 | 440 | – | – | O=C(Nc1cn(Cc2cc(F)c(F)c(F)c2)cn1)c1cc2c(cn1)CNCC2 [Example 8, N-[1-(3,4,5-trifluorobenzyl)-1H-imidazol-4-yl]-5,6,7,8-tetrahydro-2,7-naphthyridine-3-carboxamide] |
| 70 | 500 | – | – | O=C(Nc1cn(Cc2cccc(C(F)(F)F)c2)cn1)c1cc2c(cn1)CNCC2 [Example 9, N-{1-[3-(trifluoromethyl)benzyl]-1H-imidazol-4-yl}-5,6,7,8-tetrahydro-2,7-naphthyridine-3-carboxamide] |
| 430 | 460 | – | – | O=C(Nc1cn(Cc2cc(F)c(F)c(F)c2)cn1)c1ccc2c(c1F)CCNC2 [Example 14] |
| 360 | 550 | – | – | O=C(Nc1cn(Cc2cccc(C(F)(F)F)c2)cn1)c1ccc2c(c1F)CCNC2 [Example 15] |
| 5850 | 6000 | – | – | O=C(Nc1cn(Cc2cccc(C(F)(F)F)c2)cn1)c1cc2c(s1)CCNC2 [Example 16] |
| 620 | 720 | – | – | O=C(Nc1cn(Cc2cccc(C(F)(F)F)c2)cn1)c1cc2c(s1)CNCC2 [Example 17] |
| 670 | 700 | – | – | O=C(Nc1cn(Cc2cccc(C(F)(F)F)c2)cn1)c1ccc2c(c1)CNCC2 [Example 18] |
| 65200 | – | – | – | O=C(Nc1cn(Cc2cccc(C(F)(F)F)c2)cn1)c1nc2c(s1)CCNC2 [Example 20] |
| 6200 | 6190 | – | – | Cc1c(NC(=O)c2ccc3c(c2)CCNC3)ncn1Cc1cccc(C(F)(F)F)c1 [Example 21] |
| 200 | 580 | – | – | Cc1nc(NC(=O)c2ccc3c(c2)CCNC3)cn1Cc1cccc(C(F)(F)F)c1 [Example 22] |
| 4940 | – | – | – | O=C(Nc1cn(Cc2cccc(C(F)(F)F)c2)cn1)c1ccc2c(c1)CCOC2 [Example 23] |
| 520 | 670 | – | – | O=C1Nc2cc(C(=O)Nc3cn(Cc4cccc(C(F)(F)F)c4)cn3)cnc2CO1 [Example 24] |
| 60 | 90 | – | – | O=C(Nc1cn(Cc2cc(F)c(F)c(F)c2)cn1)c1ccc2c(c1)CCNC2 [Example 25, N-[1-(3,4,5-Trifluorobenzyl)-1H-imidazol-4-yl]-(1,2,3,4-tetrahydroisoquinoline-6-carboxamide ditrifluoroacetate] |
| 80 | 100 | – | – | O=C(Nc1cn(Cc2cccc(C(F)(F)F)c2)cn1)c1ccc2c(c1)CCNC2 [Example 26] |
| 690 | 6010 | – | – | O=C(Nc1cn(Cc2cccc(C(F)(F)F)c2)cn1)c1ccc2c(c1)CCCN2 [Example 27] |
| 6160 | – | – | – | CN1CCc2cc(C(=O)Nc3cn(Cc4cccc(C(F)(F)F)c4)cn3)ccc2C1 [Example 30, 2-Methyl-N-{1-[3-(trifluoromethyl)benzyl]-1H-imidazol-4-yl}-1,2,3,4-tetrahydroisoquinoline-6-carboxamide] |
| 72300 | – | – | – | CC1(C)CNCc2ccc(C(=O)Nc3cn(Cc4cccc(C(F)(F)F)c4)cn3)cc21 [Example 32] |

| IC50 (HCT-116 cells [1]; Homo sapiens, 96 h) [nM] | IC50 (HCT-116 cells [2]; Homo sapiens, HCT-116, 96 h) [nM] | IC50 (HCT-116 cells [1]) [nM] | IC50 (HCT-116 cells [2]) [nM] | SMILES |
| --- | --- | --- | --- | --- |
| 1480 | – | – | – | O=C(Nc1cn(Cc2cccc(C(F)(F)F)c2)cn1)c1ccc2c(c1)CNC2 [Example 33] |
| 80 | 50 | – | – | O=C(Nc1cc2c(cn1)CNCC2)c1cn(Cc2ccc(F)c(F)c2)cn1 [Example 35, 1-(3,4-difluorobenzyl)-N-(5,6,7,8-tetrahydro-2,7-naphthyridin-3-yl)-1H-imidazole-4-carboxamide] |
| 90 | 590 | – | – | O=C1CCc2cc(C(=O)Nc3cn(Cc4cc(F)c(F)c(F)c4)cn3)ccc2N1 [Example 37] |
| 70 | 90 | – | – | O=C(/C=C/c1ccc2c(c1)OCO2)Nc1cn(Cc2cccc(Cl)c2)cn1 [Example 38] |
| 910 | 790 | – | – | O=C(/C=C/c1ccc2c(c1)OCCO2)Nc1cn(Cc2cccc(Cl)c2)cn1 [Example 39] |
| 80 | 70 | – | – | O=C(/C=C/c1ccc2c(c1)OC(F)(F)O2)Nc1cn(Cc2cccc(Cl)c2)cn1 [Example 40] |
| 10 | 20 | – | – | O=C(/C=C/c1ccc2c(c1)CCO2)Nc1cn(Cc2cccc(Cl)c2)cn1 [Example 41] |
| 720 | 540 | – | – | O=C(Nc1cn(Cc2cccc(Cl)c2)cn1)c1cnc2c(c1)CCNC2 [Example 43] |
| 780 | 580 | – | – | O=C(Nc1cn(Cc2cccc(Cl)c2)cn1)c1ccc2c(n1)CCNC2 [Example 44] |
| 820 | 660 | – | – | O=C(Nc1cn(Cc2cccc(Cl)c2)cn1)c1ccc2c(c1)CCNC2 [Example 45] |
| – | – | 750 | 440 | O=C(Nc1cn(Cc2ccccc2F)cn1)c1cnc2c(c1)CCNC2 [Example 46] |
| 80 | 50 | – | – | O=C(Nc1cn(Cc2cc(F)cc(F)c2)cn1)c1cnc2c(c1)CCNC2 [Example 47, N-[1-(3,5-difluorobenzyl)-1H-imidazol-4-yl]-5,6,7,8-tetrahydro-1,7-naphthyridine-3-carboxamide] |
| 80 | 60 | – | – | O=C(Nc1cn(Cc2ccc(F)c(F)c2)cn1)c1cnc2c(c1)CCNC2 [Example 48, N-[1-(3,4-difluorobenzyl)-1H-imidazol-4-yl]-5,6,7,8-tetrahydro-1,7-naphthyridine-3-carboxamide] |
| 70 | 70 | – | – | O=C(Nc1cn(Cc2cccc(OC(F)(F)F)c2)cn1)c1cnc2c(c1)CCNC2 [Example 49, N-{1-[3-(trifluoromethoxy)benzyl]-1H-imidazol-4-yl}-5,6,7,8-tetrahydro-1,7-naphthyridine-3-carboxamide] |
| 50 | 660 | – | – | O=C(Nc1cn(Cc2cccc(Oc3ccccc3)c2)cn1)c1cnc2c(c1)CCNC2 [Example 50, N-[1-(3-phenoxybenzyl)-1H-imidazol-4-yl]-5,6,7,8-tetrahydro-1,7-naphthyridine-3-carboxamide] |
| – | – | – | 8520 | Nc1cccc(Cn2cnc(NC(=O)c3cnc4c(c3)CCNC4)c2)c1 [Example 67] |
| – | – | 6780 | – | COc1ccc(Cn2cnc(NC(=O)c3ccc4c(c3)CCNC4)c2)cc1 [Example 84] |
| – | 6340 | – | – | O=C(Nc1cn(Cc2cccc(O)c2)cn1)c1ccc2c(c1)CCNC2 [Example 107] |
| 6630 | – | – | – | CC(=O)N1CCc2cc(C(=O)Nc3cn(Cc4cccc(C(F)(F)F)c4)cn3)ccc2C1 [Example 108, 2-Acetyl-N-{1-[3-(trifluoromethyl)benzyl]-1H-imidazol-4-yl}-1,2,3,4-tetrahydroisoquinoline-6-carboxamide trifluoroacetate] |
| 7070 | – | – | – | O=C(Nc1cn(Cc2cccc(C(F)(F)F)c2)cn1)c1ccc2c(c1)CCC1(C2)OCCO1 [Example 109, N-{1-[3-(Trifluoromethyl)benzyl]-1H-imidazol-4-yl}-3′,4′-dihydro-1′H-spiro[1,3-dioxolane-2,2′-naphthalene]-6′-carboxamide] |
| – | – | – | 6180 | O=C(Nc1cn(CC2CCOCC2)cn1)c1cnc2c(c1)CCNC2 [Example 118] |
